# Results reported in US20230100367A1, “METHODS OF TREATING CDGSH IRON SULFUR DOMAIN 2 INSUFFICIENCY-ASSOCIATED DISORDERS” (National Yang Ming Chiao Tung University, priority 2021, published 2023).
# System: Cisd2 promoter with firefly luciferase reporter (HEK293-CISD2)
# Assay: Cisd2-luciferase reporter assay
# Type: cell-based
# Conditions: Homo sapiens; HEK293-CISD2 cells, 24 h incubation, luciferase activity
# Experimental: Compounds 1-35 were tested for increasing the level of Cisd2 in human embryonic kidney cells 293 (HEK293), a transfected cell line expressing Cisd2, using the Cisd2-luciferase reporter assay as described below.
# The transfected HEK293 cells stably expressed Cisd2 promoter with firefly luciferase reporter (“HEK293-CISD2”). They were kept in Dulbecco's modified Eagle's medium (“DMEM”) (Gibco, New York, N.Y.). Culture medium was supplemented with 10% heat-inactivated fetal bovine serum (“FBS”), 2 mM L-Glutamine, 1 mM sodium pyruvate, 0.1% MEM Non-Essential Amino Acids, 1 μg/ml puromycin and 1% penicillin/streptomycin (HyClone, Logan, Utah). The cells were maintained at 37° C. in an incubator (Thermo Fisher Scientific, Waltham, Mass.) with an atmosphere of 5% CO2. The stably transfected cells were seeded in 384-well plates at a density of 3×10^3 cells/well. After incubation with a tested compound at 37° C. for 24 h, ONE-Glo™ Luciferase Assay System (Promega, Madison, Wis.) was added at room temperature for 10 minutes to detect any luciferase activity. Luminescence intensity was registered using plate reader BioTek Synergy Neo2™ (Agilent, Santa Clara, Calif.).
# EC50 values in this table are presented in […] classes, i.e., A: <1 μM and B: 1 μM-10 μM.
row,SMILES,EC50 [nM]
1,"COC(=O)c1c(N)sc(C(=O)Nc2ccccc2OC)c1C [Compound 35, Methyl 2-amino-5-[(2-methoxyphenyl)carbamoyl]-4-methylthiophene-3-carboxylate]",1000 to 10000
2,"COC(=O)c1c(N)sc(C(=O)Nc2ccc(F)cc2)c1C [Compound 13, Methyl 2-amino-5-[(4-fluorophenyl)carbamoyl]-4-methylthiophene-3-carboxylate]",< 1000
3,"COC(=O)c1c(N)sc(C(=O)Nc2ccc(O)cc2)c1C [Compound 21, methyl 2-amino-5-[(4-hydroxyphenyl)carbamoyl]-4-methylthiophene-3-carboxylate]",< 1000
4,"Cc1ccc(NC(=O)c2sc(N)c(C#N)c2C)c(C)c1 [Compound 2, 5-Amino-4-cyano-N-(2,4-dimethylphenyl)-3-methylthiophene-2-carboxamide]",1000 to 10000
5,"CCOC(=O)c1c(N)sc(C(=O)Nc2ccc(F)cc2)c1C [Compound 5, Ethyl 2-amino-5-[(4-fluorophenyl)carbamoyl]-4-methylthiophene-3-carboxylate]",< 1000
6,"Cc1ccc(NC(=O)c2sc(N)c(C(=O)OC(C)(C)C)c2C)c(C)c1 [Compound 34, tert-Butyl 2-amino-5-[(2,4-dimethylphenyl)carbamoyl]-4-methylthiophene carboxylate]",1000 to 10000
7,"COC(=O)c1c(N)sc(C(=O)Cc2ccc(C)cc2C)c1C [Compound 24, methyl 2-amino-5-[(2,4-dimethylphenyl)acetyl]-4-methylthiophene-3-carboxylate]",1000 to 10000
8,"COC(=O)c1c(N)sc(C(=O)Nc2nccs2)c1C [Compound 19, Methyl 2-amino-4-methyl-5-(1,3-thiazol-2-ylcarbamoyl)thiophene-3-carboxylate]",< 1000
9,"COC(=O)c1c(N)sc(C(=O)Nc2ccc(C(F)(F)F)cc2)c1C [Compound 10, Methyl 2-amino-4-methyl-5-{-[4-(trifluoromethyl)phenyl]carbamoyl}thiophene-3-carboxylate]",< 1000
10,"COC(=O)c1c(N)sc(C(=O)Nc2ccc(OC)cc2)c1C [Compound 6, Methyl 2-amino-5-[(4-methoxyphenyl)carbamoyl]-4-methylthiophene-3-carboxylate]",< 1000
11,"COC(=O)c1c(N)sc(C(=O)Nc2cccnc2)c1C [Compound 3, Methyl 2-amino-4-methyl-5-(pyridin-3-ylcarbamoyl)thiophene-3-carboxylate]",< 1000
12,"COC(=O)c1c(N)sc(C(=O)Nc2cccc(C)c2)c1C [Compound 16, Methyl 2-amino-4-methyl-5-[(3-methylphenyl)carbamoyl]thiophene-3-carboxylate]",< 1000
13,"COC(=O)c1c(N)sc(C(=O)Nc2cccc(OC)c2)c1C [Compound 20, Methyl 2-amino-5-[(3-methoxyphenyl)carbamoyl]-4-methylthiophene-3-carboxylate]",< 1000
14,"Cc1ccc(NC(=O)c2sc(N)c(C(=O)OC(C)C)c2C)c(C)c1 [Compound 14, Propan-2-yl 2-amino-5-[(2,4-dimethylphenyl)carbamoyl]-4-methylthiophene-3-carboxylate]",1000 to 10000
15,"COC(=O)c1c(N)sc(C(=O)OC(C)(C)C)c1C [Compound 4, 2-tert-Butyl 4-methyl 5-amino-3-methylthiophene-2,4-dicarboxylate]",1000 to 10000
16,"COC(=O)c1c(N)sc(C(=O)Nc2c(C)cc(C)cc2C)c1C [Compound 17, Methyl 2-amino-4-methyl-5-[(2,4,6-trimethylphenyl)carbamoyl]thiophene carboxylate]",1000 to 10000
17,"Cc1ccc(NC(=O)c2sc(N)c(C(N)=O)c2C)c(C)c1 [Compound 12, 5-Amino-N^2-(2,4-dimethylphenyl)-3-methylthiophene-2,4-dicarboxamide]",< 1000

row,SMILES,EC50 [nM]
1,"COC(=O)c1c(N)sc(C(=O)Nc2ccccc2C)c1C [Compound 7, Methyl 2-amino-4-methyl-5-[(2-methylphenyl)carbamoyl]thiophene-3-carboxylate]",< 1000
2,"COC(=O)c1c(N)sc(C(=O)Nc2ccc(C#N)cc2)c1C [Compound 15, Methyl 2-amino-5-[(4-cyanophenyl)carbamoyl]-4-methylthiophene-3-carboxylate]",< 1000
3,"COC(=O)c1c(N)sc(C(=O)Nc2ccc(C)cc2C)c1Br [Compound 23, methyl 2-amino-4-bromo-5-[(2,4-dimethylphenyl)carbamoyl]thiophene-3-carboxylate]",< 1000
4,"Cc1ccc(NC(=O)c2sc(N)c(C(=O)O)c2C)c(C)c1 [Compound 27, 2-amino-5-[(2,4-dimethylphenyl)carbamoyl]-4-methylthiophene-3-carboxylic acid]",< 1000
5,"COC(=O)c1c(N)sc(C(=O)Nc2ccc(C)cc2)c1C [Compound 8, Methyl 2-amino-4-methyl-5-[(4-methylphenyl)carbamoyl]thiophene-3-carboxylate]",< 1000
6,"CC(=O)c1c(N)sc(C(=O)Nc2ccc(F)cc2)c1C [Compound 32, 4-Acetyl-5-amino-N-(4-fluorophenyl)-3-methylthiophene-2-carboxamide]",< 1000
7,"CCOC(=O)c1c(N)sc(C(=O)Nc2ccc(C)cc2C)c1C [Compound 25, Ethyl 2-amino-5-[(2,4-dimethylphenyl)carbamoyl]-4-methylthiophene-3-carboxylate]",< 1000
8,"COC(=O)c1c(N)sc(C(=O)Nc2ccccc2)c1C [Compound 9, Methyl 2-amino-4-methyl-5-(phenylcarbamoyl)thiophene-3-carboxylate]",< 1000
9,"CC(=O)c1c(N)sc(C(=O)Nc2ccc(C)cc2C)c1C [Compound 30, 4-acetyl-5-amino-N-(2,4-dimethylphenyl)-3-methylthiophene-2-carboxamide]",< 1000
10,"CCOC(=O)c1cccc(NC(=O)c2sc(N)c(C(=O)OCC)c2C)c1 [Compound 26, Ethyl 2-amino-5-{[3-(ethoxycarbonyl)phenyl]carbamoyl}-4-methylthiophene-3-carboxylate]",1000 to 10000
11,"Cc1ccc(NC(=O)c2sc(N)c(C(=O)NCC#N)c2C)c(C)c1 [Compound 28, 5-amino-N^4-(cyanomethyl)-N^2-(2,4-dimethylphenyl)-3-methylthiophene-2,4-dicarboxamide]",1000 to 10000
12,COC(=O)c1c(NC(C)=O)sc(C(=O)Nc2ccc(C)cc2C)c1C [Compound 33],1000 to 10000
13,"COC(=O)c1c(N)sc(C(=O)Nc2cc(OC)c(OC)c(OC)c2)c1C [Compound 18, Methyl 2-amino-4-methyl-5-[(3,4,5-trimethoxyphenyl)carbamoyl]thiophene-3-carboxylate]",1000 to 10000
14,"COC(=O)c1cc(C(=O)Nc2ccc(C)cc2C)sc1N [Compound 22, Methyl 2-amino-5-[(2,4-dimethylphenyl)carbamoyl]thiophene-3-carboxylate]",1000 to 10000
15,"COC(=O)c1c(N)sc(C(=O)Nc2ccc(N(C)C)cc2)c1C [Compound 11, Methyl 2-amino-5-{-[4-(dimethylamino)phenyl]carbamoyl}-4-methylthiophene-3-carboxylate]",< 1000
16,"CC(=O)c1c(N)sc(C(=O)Nc2ccccc2)c1C [Compound 31, 4-Acetyl-5-amino-3-methyl-N-phenylthiophene-2-carboxamide]",< 1000
17,"Cc1ccc(NC(=O)c2sc(N)c(C(=O)CO)c2C)c(C)c1 [Compound 29, 5-amino-N-(2,4-dimethylphenyl)-4-(hydroxyacetyl)-3-methylthiophene-2-carboxamide]",< 1000
